Tested on: MV-4-11 cells
Assay: Gene expression microarray analysis (Affymetrix PrimeView) and GSEA
Assay type: cell-based, human
Parameters: RFU PODN (11730768_x_at) / Fold change /veh PODN (11730768_x_at) / RFU LINC00158 (11744669_a_at) / Fold change /veh LINC00158 (11744669_a_at) / RFU DUSP10 (11751237_a_at) / Fold change /veh DUSP10 (11751237_a_at) / RFU ID3 (11757404_x_at) / Fold change /veh ID3 (11757404_x_at) / RFU PLEKHG5 (11737974_s_at) / Fold change /veh PLEKHG5 (11737974_s_at) / RFU LRRC4B (11730491_at) / Fold change /veh LRRC4B (11730491_at) / RFU GIMAP4 (11747438_a_at) / Fold change /veh GIMAP4 (11747438_a_at) / RFU KRT8 (11758183_x_at) / Fold change /veh KRT8 (11758183_x_at) / RFU CNN1 (11734310_a_at) / Fold change /veh CNN1 (11734310_a_at) / RFU VPS37D (11726825_at) / Fold change /veh VPS37D (11726825_at) / RFU C10orf10 (11716522_x_at) / Fold change /veh C10orf10 (11716522_x_at) / RFU KIR2DL2 /// KIR2DL4 /// KIR2DL5A /// KIR2DL5B /// KIR2DS1 /// KIR2DS2 /// KIR2DS3 /// KIR2DS4 /// KIR3DL3 /// KIR3DL3 /// KIR3DS1 (11738374_at) / Fold change /veh KIR2DL2 /// KIR2DL4 /// KIR2DL5A /// KIR2DL5B /// KIR2DS1 /// KIR2DS2 /// KIR2DS3 /// KIR2DS4 /// KIR3DL3 /// KIR3DL3 /// KIR3DS1 (11738374_at) / RFU C1QL1 (11718748_at) / Fold change /veh C1QL1 (11718748_at) / RFU TMPRSS4 (11747572_a_at) / Fold change /veh TMPRSS4 (11747572_a_at) / RFU HAMP (11756126_x_at) / Fold change /veh HAMP (11756126_x_at) / RFU RNFT2 (11725882_a_at) / Fold change /veh RNFT2 (11725882_a_at) / RFU NR4A2 (11747474_a_at) / Fold change /veh NR4A2 (11747474_a_at) / RFU ABCC12 (11746883_a_at) / Fold change /veh ABCC12 (11746883_a_at) / RFU TMEM136 (11760407_x_at) / Fold change /veh TMEM136 (11760407_x_at) / RFU CLDN22 /// WWC2 (11732394_at) / Fold change /veh CLDN22 /// WWC2 (11732394_at) / RFU HLA-DPB1 (11760878_x_at) / Fold change /veh HLA-DPB1 (11760878_x_at) / RFU SPINT1 (11716480_a_at) / Fold change /veh SPINT1 (11716480_a_at) / RFU GAP43 (11754022_s_at) / Fold change /veh GAP43 (11754022_s_at) / RFU A4GNT (11735810_at) / Fold change /veh A4GNT (11735810_at) / RFU PRB3 (11715151_x_at) / Fold change /veh PRB3 (11715151_x_at) / RFU TUBB4B (11761932_at) / Fold change /veh TUBB4B (11761932_at) / RFU CAPN14 (11732068_a_at) / Fold change /veh CAPN14 (11732068_a_at) / RFU TMCC2 (11721928_a_at) / Fold change /veh TMCC2 (11721928_a_at) / RFU IRGQ (11745062_a_at) / Fold change /veh IRGQ (11745062_a_at) / RFU FAM174B (11720279_a_at) / Fold change /veh FAM174B (11720279_a_at) / RFU TMPRSS4 (11748680_a_at) / Fold change /veh TMPRSS4 (11748680_a_at) / RFU FAM212B (11763350_a_at) / Fold change /veh FAM212B (11763350_a_at) / RFU PLEKHG5 (11743358_a_at) / Fold change /veh PLEKHG5 (11743358_a_at) / RFU ZSCAN30 (11745921_a_at) / Fold change /veh ZSCAN30 (11745921_a_at) / RFU CMKLR1 (11741424_a_at) / Fold change /veh CMKLR1 (11741424_a_at) / RFU LOC101060620 /// MAPK8IP1 (11723275_at) / Fold change /veh LOC101060620 /// MAPK8IP1 (11723275_at) / RFU SPTSSB (11747773_x_at) / Fold change /veh SPTSSB (11747773_x_at) / RFU PRSS12 (11739890_at) / Fold change /veh PRSS12 (11739890_at) / RFU BIN1 (11741810_x_at) / Fold change /veh BIN1 (11741810_x_at) / RFU WNT11 (11732464_a_at) / Fold change /veh WNT11 (11732464_a_at) / RFU C10orf10 (11716521_a_at) / Fold change /veh C10orf10 (11716521_a_at) / RFU C5orf56 (11738089_at) / Fold change /veh C5orf56 (11738089_at) / RFU CYB561 (11721691_x_at) / Fold change /veh CYB561 (11721691_x_at) / RFU ANKRD19P (11752326_a_at) / Fold change /veh ANKRD19P (11752326_a_at) / RFU OR2T12 /// OR2T33 /// OR2T8 (11738714_s_at) / Fold change /veh OR2T12 /// OR2T33 /// OR2T8 (11738714_s_at) / RFU VCAN (11748164_a_at) / Fold change /veh VCAN (11748164_a_at) / RFU JSRP1 (11732532_at) / Fold change /veh JSRP1 (11732532_at) / RFU KRTAP10-11 (11738290_x_at) / Fold change /veh KRTAP10-11 (11738290_x_at) / RFU MYO3A (11730013_a_at) / Fold change /veh MYO3A (11730013_a_at) / RFU EBF3 (11725865_a_at) / Fold change /veh EBF3 (11725865_a_at) / RFU CAMK2N1 (11719241_x_at) / Fold change /veh CAMK2N1 (11719241_x_at) / RFU C5orf56 (11738088_a_at) / Fold change /veh C5orf56 (11738088_a_at) / RFU OLFML3 (11715873_a_at) / Fold change /veh OLFML3 (11715873_a_at) / RFU LOC100653217 /// NTM (11731650_a_at) / Fold change /veh LOC100653217 /// NTM (11731650_a_at) / RFU MAPK11 (11762145_a_at) / Fold change /veh MAPK11 (11762145_a_at) / RFU FIZ1 (11724087_x_at) / Fold change /veh FIZ1 (11724087_x_at) / RFU OASL (11726364_x_at) / Fold change /veh OASL (11726364_x_at) / RFU SOX15 (11748057_x_at) / Fold change /veh SOX15 (11748057_x_at) / RFU CD79A (11719716_a_at) / Fold change /veh CD79A (11719716_a_at) / RFU HIST1H1D (11736915_at) / Fold change /veh HIST1H1D (11736915_at) / RFU CASKIN2 (11723855_a_at) / Fold change /veh CASKIN2 (11723855_a_at) / RFU LOC730098 (11760151_x_at) / Fold change /veh LOC730098 (11760151_x_at) / RFU OR4N2 (11742367_at) / Fold change /veh OR4N2 (11742367_at) / RFU PRRT2 (11749266_a_at) / Fold change /veh PRRT2 (11749266_a_at) / RFU SNX32 (11753110_a_at) / Fold change /veh SNX32 (11753110_a_at) / RFU CDHR5 (11726645_a_at) / Fold change /veh CDHR5 (11726645_a_at) / RFU RCAN1 (11760418_a_at) / Fold change /veh RCAN1 (11760418_a_at) / RFU FAM167A (11723789_a_at) / Fold change /veh FAM167A (11723789_a_at) / RFU FAM26E (11764081_at) / Fold change /veh FAM26E (11764081_at) / RFU ISYNA1 (11749810_s_at) / Fold change /veh ISYNA1 (11749810_s_at) / RFU ACY1 (11761880_at) / Fold change /veh ACY1 (11761880_at) / RFU 11764098_at / Fold change /veh 11764098_at / RFU SAMD14 (11745864_x_at) / Fold change /veh SAMD14 (11745864_x_at) / RFU NPB (11741838_a_at) / Fold change /veh NPB (11741838_a_at) / RFU TMPRSS6 (11731388_a_at) / Fold change /veh TMPRSS6 (11731388_a_at) / RFU KRTAP10-2 (11738614_at) / Fold change /veh KRTAP10-2 (11738614_at) / RFU ARHGAP8 /// PRR5-ARHGAP8 (11727945_x_at) / Fold change /veh ARHGAP8 /// PRR5-ARHGAP8 (11727945_x_at) / RFU KRTAP5-7 /// NADSYN1 (11734609_at) / Fold change /veh KRTAP5-7 /// NADSYN1 (11734609_at) / RFU RASL12 (11751679_a_at) / Fold change /veh RASL12 (11751679_a_at) / RFU CDKN2B (11736163_a_at) / Fold change /veh CDKN2B (11736163_a_at) / RFU PRF1 (11729649_at) / Fold change /veh PRF1 (11729649_at) / RFU, ZNF638 /// ZNF638-IT1 / Fold change vs veh, ZNF638 /// ZNF638-IT1 / RFU, PANK3 / Fold change vs veh, PANK3 / RFU, SH3YL1 / Fold change vs veh, SH3YL1 / RFU, ZEB2 / Fold change vs veh, ZEB2 / RFU, NRIP1 / Fold change vs veh, NRIP1 / RFU, PTTG1IP / Fold change vs veh, PTTG1IP / RFU, CAPN2 / Fold change vs veh, CAPN2 / RFU, MED14 / Fold change vs veh, MED14 / RFU, SNORA58 / Fold change vs veh, SNORA58 / RFU, C1orf63 / Fold change vs veh, C1orf63 / RFU, LRRFIP1 / Fold change vs veh, LRRFIP1 / RFU, NDUFAF7 / Fold change vs veh, NDUFAF7 / RFU, SLC12A2 / Fold change vs veh, SLC12A2 / RFU, IBTK / Fold change vs veh, IBTK / RFU, ESF1 / Fold change vs veh, ESF1 / Fold change vs veh, TMEM50B / RFU, TAOK1 / Fold change vs veh, TAOK1 / RFU, ACBD3 / Fold change vs veh, ACBD3 / RFU, TMA16 / Fold change vs veh, TMA16 / RFU, RWDD3 / Fold change vs veh, RWDD3 / RFU, BCAT1 / Fold change vs veh, BCAT1 / RFU, EDEM3 / Fold change vs veh, EDEM3 / RFU, TMEM33 / Fold change vs veh, TMEM33 / RFU, WDR75 / Fold change vs veh, WDR75 / RFU, AHCTF1 / Fold change vs veh, AHCTF1 / RFU, TFRC / Fold change vs veh, TFRC / RFU, ZDHHC17 / Fold change vs veh, ZDHHC17 / RFU, NOM1 / Fold change vs veh, NOM1 / RFU, ARL8B / Fold change vs veh, ARL8B / RFU, ZBTB11 / Fold change vs veh, ZBTB11 / RFU, TAMM41 / Fold change vs veh, TAMM41 / RFU, KIAA1704 /// LOC100996395 / Fold change vs veh, KIAA1704 /// LOC100996395 / RFU, ING1 / Fold change vs veh, ING1 / RFU, TRMT61B / Fold change vs veh, TRMT61B / RFU, FUBP3 / Fold change vs veh, FUBP3 / RFU, TP53 / Fold change vs veh, TP53 / RFU, TNKS2 / Fold change vs veh, TNKS2 / RFU, ZFP14 / Fold change vs veh, ZFP14 / RFU, ACTR2 / Fold change vs veh, ACTR2 / RFU, PPP3R1 / Fold change vs veh, PPP3R1 / RFU, PIK3R1 / Fold change vs veh, PIK3R1 / RFU, HNRNPA1 / Fold change vs veh, HNRNPA1 / RFU, RNF170 / Fold change vs veh, RNF170 / RFU, ZNF28 / Fold change vs veh, ZNF28 / RFU, RNGTT / Fold change vs veh, RNGTT / RFU, OGT / Fold change vs veh, OGT / RFU, BRD1 / Fold change vs veh, BRD1 / RFU, MARS / Fold change vs veh, MARS / RFU, ZNF655 / Fold change vs veh, ZNF655 / RFU, FAHD1 / Fold change vs veh, FAHD1 / RFU, BDP1 / Fold change vs veh, BDP1 / RFU, LRRCC1 / Fold change vs veh, LRRCC1 / RFU, ARID1A / Fold change vs veh, ARID1A / RFU, ZNF146 / Fold change vs veh, ZNF146 / RFU, ZNF330 / Fold change vs veh, ZNF330 / RFU, GPN3 / Fold change vs veh, GPN3 / RFU, C9orf123 / Fold change vs veh, C9orf123 / RFU, N4BP2L2 / Fold change vs veh, N4BP2L2 / RFU, ARFIP1 / Fold change vs veh, ARFIP1 / RFU, FAM179B / Fold change vs veh, FAM179B / RFU, BCL10 / Fold change vs veh, BCL10 / RFU, UHRF1BP1L / Fold change vs veh, UHRF1BP1L / RFU, BET1 / Fold change vs veh, BET1 / RFU, CNOT2 / Fold change vs veh, CNOT2 / RFU, ZNF268 / Fold change vs veh, ZNF268 / Fold change vs veh, ZNF507 / RFU, DGCR2 / Fold change vs veh, DGCR2 / RFU, WDSUB1 / Fold change vs veh, WDSUB1 / Fold change vs veh, HSP90B1 /// MIR3652 / RFU, ADSS / Fold change vs veh, ADSS / RFU, GK / Fold change vs veh, GK / RFU, ZNF148 / Fold change vs veh, ZNF148 / RFU, TAF9 / Fold change vs veh, TAF9 / RFU, SLC1A5 / Fold change vs veh, SLC1A5 / RFU, SLMO2 / Fold change vs veh, SLMO2 / RFU, ABCC4 / Fold change vs veh, ABCC4 / RFU, LOC101060439 /// RAP1B / Fold change vs veh, LOC101060439 /// RAP1B / RFU, RFX7 / Fold change vs veh, RFX7 / RFU, GTPBP10 / Fold change vs veh, GTPBP10 / RFU, CNEP1R1 / Fold change vs veh, CNEP1R1 / RFU, BIVM-ERCC5 /// ERCC5 / Fold change vs veh, BIVM-ERCC5 /// ERCC5 / RFU, ILF3 / Fold change vs veh, ILF3 / RFU 11762660_at / Fold change /veh 11762660_at / RFU VCAN (11757783_s_at) / Fold change /veh VCAN (11757783_s_at) / RFU DDX43 (11728927_at) / Fold change /veh DDX43 (11728927_at) / RFU KRT8 (11758188_x_at) / Fold change /veh KRT8 (11758188_x_at) / RFU NKD1 (11759106_at) / Fold change /veh NKD1 (11759106_at) / RFU SRD5A1 (11742802_a_at) / Fold change /veh SRD5A1 (11742802_a_at) / RFU TPSAB1 /// TPSB2 (11721975_s_at) / Fold change /veh TPSAB1 /// TPSB2 (11721975_s_at) / RFU GSTM3 (11746129_a_at) / Fold change /veh GSTM3 (11746129_a_at) / RFU IL23R (11737362_x_at) / Fold change /veh IL23R (11737362_x_at) / RFU TMEM51 (11727254_a_at) / Fold change /veh TMEM51 (11727254_a_at) / RFU PIWIL2 (11732686_x_at) / Fold change /veh PIWIL2 (11732686_x_at) / RFU ORM1 (11744905_x_at) / Fold change /veh ORM1 (11744905_x_at) / RFU CCDC152 (11743942_at) / Fold change /veh CCDC152 (11743942_at) / RFU ECM1 (11717891_a_at) / Fold change /veh ECM1 (11717891_a_at) / RFU IL23R (11748794_a_at) / Fold change /veh IL23R (11748794_a_at) / RFU TNFAIP8L3 (11732012_x_at) / Fold change /veh TNFAIP8L3 (11732012_x_at) / RFU MBOAT4 (11741988_at) / Fold change /veh MBOAT4 (11741988_at) / RFU 11764193_at / Fold change /veh 11764193_at / RFU TMEM53 (11763286_at) / Fold change /veh TMEM53 (11763286_at) / RFU MAGEB2 (11727129_at) / Fold change /veh MAGEB2 (11727129_at) / RFU TMEM200A (11744735_a_at) / Fold change /veh TMEM200A (11744735_a_at) / RFU CCDC152 (11751479_a_at) / Fold change /veh CCDC152 (11751479_a_at) / RFU FAM211A (11726209_a_at) / Fold change /veh FAM211A (11726209_a_at) / RFU RGS16 (11746705_a_at) / Fold change /veh RGS16 (11746705_a_at) / RFU VCAN (11755009_s_at) / Fold change /veh VCAN (11755009_s_at) / RFU RHOB (11743442_s_at) / Fold change /veh RHOB (11743442_s_at) / RFU RGS16 (11720943_a_at) / Fold change /veh RGS16 (11720943_a_at) / RFU RGS16 (11720944_at) / Fold change /veh RGS16 (11720944_at) / RFU, VPS4B / Fold change vs veh, VPS4B / RFU, CREB1 / Fold change vs veh, CREB1 / RFU, DNAJC13 / Fold change vs veh, DNAJC13 / RFU, GNAQ / Fold change vs veh, GNAQ / RFU, CDK5R1 / Fold change vs veh, CDK5R1 / RFU, ZRANB3 / Fold change vs veh, ZRANB3 / RFU, CUL4A / Fold change vs veh, CUL4A / RFU, CCNY / Fold change vs veh, CCNY / RFU, UFL1 / Fold change vs veh, UFL1 / RFU, COG3 / Fold change vs veh, COG3 / RFU, DIAPH2 / Fold change vs veh, DIAPH2 / RFU, SKA2 / Fold change vs veh, SKA2 / RFU, AFF3 / Fold change vs veh, AFF3 / RFU, LMF1 / Fold change vs veh, LMF1 / RFU, IPO11 / Fold change vs veh, IPO11 / RFU, DFFB / Fold change vs veh, DFFB / RFU, FOXP1 / Fold change vs veh, FOXP1 / RFU, CARD8 / Fold change vs veh, CARD8 / RFU, STRN3 / Fold change vs veh, STRN3 / RFU, ADK / Fold change vs veh, ADK / RFU, RASSF2 / Fold change vs veh, RASSF2 / RFU, WIPF1 / Fold change vs veh, WIPF1 / RFU, LARP1B / Fold change vs veh, LARP1B / RFU, RASA1 / Fold change vs veh, RASA1 / RFU, RB1 / Fold change vs veh, RB1 / RFU, PPFIA1 / Fold change vs veh, PPFIA1 / RFU, MAT2A / Fold change vs veh, MAT2A / RFU, CCT5 / Fold change vs veh, CCT5 / RFU, WDR92 / Fold change vs veh, WDR92 / RFU, CUX1 / Fold change vs veh, CUX1 / RFU, TTC7A / Fold change vs veh, TTC7A / RFU, TMEM135 / Fold change vs veh, TMEM135 / RFU, DEPTOR / Fold change vs veh, DEPTOR / RFU, CPM / Fold change vs veh, CPM / RFU, DNAJB6 / Fold change vs veh, DNAJB6 / RFU, CACNA2D3 / Fold change vs veh, CACNA2D3 / RFU, DTX4 / Fold change vs veh, DTX4 / RFU, TFCP2 / Fold change vs veh, TFCP2 / RFU, GMCL1 /// GMCL1P1 / Fold change vs veh, GMCL1 /// GMCL1P1 / RFU, AEBP2 / Fold change vs veh, AEBP2 / RFU, SNHG1 /// SNORD22 /// SNORD25 /// SNORD26 /// SNORD27 /// SNORD28 /// SNORD29 /// SNORD31 / Fold change vs veh, SNHG1 /// SNORD22 /// SNORD25 /// SNORD26 /// SNORD27 /// SNORD28 /// SNORD29 /// SNORD31 / Fold change (Aza/veh), C12orf56 (ProbeSet 11735607_a_at) / Fold change (ACY-1035/veh), C12orf56 (ProbeSet 11735607_a_at) / Fold change (Aza/veh), FGFR1OP (ProbeSet 11751329_s_at) / Fold change (ACY-1035/veh), FGFR1OP (ProbeSet 11751329_s_at) / Fold change (Aza/veh), VPS36 (ProbeSet 11739960_a_at) / Fold change (ACY-1035/veh), VPS36 (ProbeSet 11739960_a_at) / RFU SYPL1 (11715823_x_at) / Fold change /veh SYPL1 (11715823_x_at) / RFU IGFBP7 (11715501_s_at) / Fold change /veh IGFBP7 (11715501_s_at) / RFU REEP3 (11722064_at) / Fold change /veh REEP3 (11722064_at) / RFU IGLL1 (11728026_x_at) / Fold change /veh IGLL1 (11728026_x_at): dose or concentration left out as unconfirmed
Settings: MV-4-11 cells, 48 hours

Nc1ccc(-c2cccs2)cc1NC(=O)c1ccc2c(c1)cc(C1CC1)n2CCN1CCOCC1 [ACY-1035]
Fold change /veh KRTAP10-11 (11738290_x_at): 1.00

Source: article PMC5218480 (PLoS ONE, 2017)
